According to ChEMBL document CHEMBL3390836, “Mannich- and LedererManasse-based analogues of the natural product S-(+)-curcuphenol as cancer proliferation and migration inhibitors” (Medchemcomm, 2012):

Assays:
Type in all cases: functional
K562 = assay: Cytotoxicity against human K562 cells after 48 hrs by SRB assay; conditions: K562, 48 h
NCI-H460 [1] = assay: Cytotoxicity against human NCI-H460 cells after 48 hrs by SRB assay; conditions: NCI-H460, 48 h
786-0 [2] = assay: Cytotoxicity against human 786-0 cells assessed as cell growth at 10^-7 M after 48 hrs by SRB assay relative to control; conditions: 786-0, 48 h, read-out: Activity
A498 = assay: Cytotoxicity against human A498 cells assessed as cell growth at 10^-6 M after 48 hrs by SRB assay relative to control; conditions: A498, 48 h, read-out: Activity
NCI-H23 [3] = assay: Cytotoxicity against human NCI-H23 cells after 48 hrs by SRB assay; conditions: NCI-H23, 48 h
NCI-H23 [4] = assay: Cytotoxicity against human NCI-H23 cells assessed as cell growth at 10^-6 M after 48 hrs by SRB assay relative to control; conditions: NCI-H23, 48 h, read-out: Activity
SNB-75 [5] = assay: Cytotoxicity against human SNB75 cells assessed as cell growth at 10^-7 M after 48 hrs by SRB assay relative to control; conditions: SNB-75, 48 h, read-out: Activity
[6] = Cytotoxicity against human EKVX cells assessed as cell growth at 10^-6 M after 48 hrs by SRB assay relative to control; conditions: read-out: Activity
NCI-H23 [7] = assay: Cytotoxicity against human NCI-H23 cells assessed as cell growth at 10^-8 M after 48 hrs by SRB assay relative to control; conditions: NCI-H23, 48 h, read-out: Activity
MDA-MB-231 = assay: Cytotoxicity against human MDA-MB-231 cells assessed as cell growth at 10^-8 M after 48 hrs by SRB assay relative to control; conditions: MDA-MB-231, 48 h, read-out: Activity
SW-620 [8] = assay: Cytotoxicity against human SW620 cells assessed as cell growth at 10^-4 M after 48 hrs by SRB assay relative to control; conditions: SW-620, 48 h, read-out: Activity
[9] = Cytotoxicity against human HCT15 cells after 48 hrs by SRB assay; conditions: HCT-15, 48 h
[10] = Cytotoxicity against human OVCAR5 cells assessed as cell growth at 10^-8 M after 48 hrs by SRB assay relative to control; conditions: OVCAR-5, 48 h, read-out: Activity
KM12 [11] = assay: Cytotoxicity against human KM12 cells assessed as cell growth at 10^-7 M after 48 hrs by SRB assay relative to control; conditions: KM12, 48 h, read-out: Activity
NCI-H460 [12] = assay: Cytotoxicity against human NCI-H460 cells assessed as cell growth at 10^-4 M after 48 hrs by SRB assay relative to control; conditions: NCI-H460, 48 h, read-out: Activity
SW-620 [13] = assay: Cytotoxicity against human SW620 cells after 48 hrs by SRB assay; conditions: SW-620, 48 h
SNB-75 [14] = assay: Cytotoxicity against human SNB75 cells assessed as cell growth at 10^-8 M after 48 hrs by SRB assay relative to control; conditions: SNB-75, 48 h, read-out: Activity
SK-MEL-28 [15] = assay: Cytotoxicity against human SK-MEL-28 cells assessed as cell growth at 10^-7 M after 48 hrs by SRB assay relative to control; conditions: SK-MEL-28, 48 h, read-out: Activity
SK-MEL-28 [16] = assay: Cytotoxicity against human SK-MEL-28 cells assessed as cell growth at 10^-8 M after 48 hrs by SRB assay relative to control; conditions: SK-MEL-28, 48 h, read-out: Activity
IGROV-1 = assay: Cytotoxicity against human IGROV1 cells assessed as cell growth at 10^-7 M after 48 hrs by SRB assay relative to control; conditions: IGROV-1, 48 h, read-out: Activity
[17] = Cytotoxicity against human OVCAR8 cells assessed as cell growth at 10^-8 M after 48 hrs by SRB assay relative to control; conditions: OVCAR-8, 48 h, read-out: Activity
T47D [18] = assay: Cytotoxicity against human T47D cells assessed as cell growth at 10^-4 M after 48 hrs by SRB assay relative to control; conditions: read-out: Activity
RXF 393 = assay: Cytotoxicity against human RXF393 cells assessed as cell growth at 10^-4 M after 48 hrs by SRB assay relative to control; conditions: RXF 393, 48 h, read-out: Activity
KM12 [19] = assay: Cytotoxicity against human KM12 cells after 48 hrs by SRB assay; conditions: KM12, 48 h
SF-295 = assay: Cytotoxicity against human SF295 cells assessed as cell growth at 10^-6 M after 48 hrs by SRB assay relative to control; conditions: SF-295, 48 h, read-out: Activity
KM12 [20] = assay: Cytotoxicity against human KM12 cells assessed as cell growth at 10^-8 M after 48 hrs by SRB assay relative to control; conditions: KM12, 48 h, read-out: Activity
[21] = Cytotoxicity against human PC3 cells assessed as cell growth at 10^-8 M after 48 hrs by SRB assay relative to control; conditions: PC-3, 48 h, read-out: Activity
NCI-H226 = assay: Cytotoxicity against human NCI-H226 cells assessed as cell growth at 10^-8 M after 48 hrs by SRB assay relative to control; conditions: NCI-H226, 48 h, read-out: Activity
HOP-62 = assay: Cytotoxicity against human HOP62 cells assessed as cell growth at 10^-6 M after 48 hrs by SRB assay relative to control; conditions: HOP-62, 48 h, read-out: Activity
U-251 = assay: Cytotoxicity against human U251 cells assessed as cell growth at 10^-8 M after 48 hrs by SRB assay relative to control; conditions: U-251, 48 h, read-out: Activity
SK-MEL-2 = assay: Cytotoxicity against human SK-MEL-2 cells assessed as cell growth at 10^-7 M after 48 hrs by SRB assay relative to control; conditions: SK-MEL-2, 48 h, read-out: Activity
SNB-75 [22] = assay: Cytotoxicity against human SNB75 cells after 48 hrs by SRB assay; conditions: SNB-75, 48 h
T47D [23] = assay: Cytotoxicity against human T47D cells assessed as cell growth at 10^-8 M after 48 hrs by SRB assay relative to control; conditions: read-out: Activity
786-0 [24] = assay: Cytotoxicity against human 786-0 cells after 48 hrs by SRB assay; conditions: 786-0, 48 h
CAKI-1 = assay: Cytotoxicity against human Caki1 cells assessed as cell growth at 10^-6 M after 48 hrs by SRB assay relative to control; conditions: CAKI-1, 48 h, read-out: Activity
MDA-MB-468 = assay: Cytotoxicity against human MDA-MB-468 cells assessed as cell growth at 10^-4 M after 48 hrs by SRB assay relative to control; conditions: MDA-MB-468, 48 h, read-out: Activity
[25] = read-out: LC50 (the source's name)

**Q.** Which GI50 (K562) does the source give for COc1ccc(CCN2COc3c([C@@H](C)CCC=C(C)C)ccc(C)c3C2)cc1OC here?
**A.** Its GI50 is 3.7 µM.

**Q.** And the TGI (K562)?
**A.** The TGI was 93.5 µM.

**Q.** And the CC50 (K562; [25])?
**A.** The CC50 was > 100 µM.

**Q.** And the GI50 (NCI-H460 [1])?
**A.** The GI50 was 2.06 µM.

**Q.** And the TGI (NCI-H460 [1])?
**A.** The TGI was 4.3 µM.

**Q.** And the CC50 (NCI-H460 [1]; [25])?
**A.** The CC50 was 8.95 µM.

**Q.** What about the growth at 0.1 µM (786-0 [2]) of the same compound?
**A.** The growth at 0.1 µM was 65%.

**Q.** And the growth at 1 µM (A498)?
**A.** The growth at 1 µM was 68%.

**Q.** And the GI50 (NCI-H23 [3])?
**A.** The GI50 was 2.55 µM.

**Q.** What about the LC50 (NCI-H23 [3]) of the same compound?
**A.** Its LC50 is 21.8 µM.

**Q.** And the TGI (NCI-H23 [3])?
**A.** The TGI was 6.08 µM.

**Q.** And the growth at 1 µM (NCI-H23 [4])?
**A.** Its growth at 1 µM is 104%.

**Q.** What about the growth at 0.1 µM (SNB-75 [5]) of the same compound?
**A.** Its growth at 0.1 µM is 86%.

**Q.** And the growth at 1 µM [6]?
**A.** Its growth at 1 µM is 91%.

**Q.** What about the growth at 0.01 µM (NCI-H23 [7]) of the same compound?
**A.** The growth at 0.01 µM was 97%.

**Q.** And the growth at 0.01 µM (MDA-MB-231)?
**A.** Its growth at 0.01 µM is 100%.

**Q.** And the growth at 100 µM (SW-620 [8])?
**A.** The growth at 100 µM was -86%.

**Q.** What about the GI50 [9] of the same compound?
**A.** The GI50 was 2.84 µM.

**Q.** What about the TGI [9] of the same compound?
**A.** The TGI was 10.4 µM.

**Q.** What about the CC50 [9, 25] of the same compound?
**A.** The CC50 was 38.2 µM.

**Q.** What about the growth at 0.01 µM [10] of the same compound?
**A.** Its growth at 0.01 µM is 92%.

**Q.** And the growth at 0.1 µM (KM12 [11])?
**A.** Its growth at 0.1 µM is 96%.

**Q.** What about the growth at 100 µM (NCI-H460 [12]) of the same compound?
**A.** Its growth at 100 µM is -92%.

**Q.** What about the GI50 (SW-620 [13]) of the same compound?
**A.** The GI50 was 1.91 µM.

**Q.** And the TGI (SW-620 [13])?
**A.** Its TGI is 4.08 µM.

**Q.** And the CC50 (SW-620 [13]; [25])?
**A.** Its CC50 is 8.72 µM.

**Q.** And the growth at 0.01 µM (SNB-75 [14])?
**A.** The growth at 0.01 µM was 79%.

**Q.** What about the growth at 0.1 µM (SK-MEL-28 [15]) of the same compound?
**A.** Its growth at 0.1 µM is 84%.

**Q.** What about the growth at 0.01 µM (SK-MEL-28 [16]) of the same compound?
**A.** The growth at 0.01 µM was 106%.

**Q.** What about the growth at 0.1 µM (IGROV-1) of the same compound?
**A.** The growth at 0.1 µM was 97%.

**Q.** What about the growth at 0.01 µM [17] of the same compound?
**A.** Its growth at 0.01 µM is 86%.

**Q.** And the growth at 100 µM (T47D [18])?
**A.** Its growth at 100 µM is -91%.

**Q.** And the growth at 100 µM (RXF 393)?
**A.** The growth at 100 µM was -92%.

**Q.** What about the GI50 (KM12 [19]) of the same compound?
**A.** Its GI50 is 2.86 µM.

**Q.** What about the TGI (KM12 [19]) of the same compound?
**A.** The TGI was 9.64 µM.

**Q.** What about the CC50 (KM12 [19]; [25]) of the same compound?
**A.** The CC50 was 46.1 µM.

**Q.** And the growth at 1 µM (SF-295)?
**A.** Its growth at 1 µM is 80%.

**Q.** What about the growth at 0.01 µM (KM12 [20]) of the same compound?
**A.** The growth at 0.01 µM was 98%.

**Q.** And the growth at 0.01 µM [21]?
**A.** Its growth at 0.01 µM is 94%.

**Q.** What about the growth at 0.01 µM (NCI-H226) of the same compound?
**A.** Its growth at 0.01 µM is 90%.

**Q.** What about the growth at 1 µM (HOP-62) of the same compound?
**A.** The growth at 1 µM was 97%.

**Q.** What about the growth at 0.01 µM (U-251) of the same compound?
**A.** The growth at 0.01 µM was 92%.

**Q.** What about the growth at 0.1 µM (SK-MEL-2) of the same compound?
**A.** Its growth at 0.1 µM is 85%.

**Q.** And the GI50 (SNB-75 [22])?
**A.** The GI50 was 12.5 µM.

**Q.** And the LC50 (SNB-75 [22])?
**A.** The LC50 was > 100 µM.

**Q.** And the TGI (SNB-75 [22])?
**A.** The TGI was 35.4 µM.

**Q.** And the growth at 0.01 µM (T47D [23])?
**A.** Its growth at 0.01 µM is 88%.

**Q.** And the LC50 (786-0 [24])?
**A.** The LC50 was 8.72 µM.

**Q.** And the growth at 1 µM (CAKI-1)?
**A.** The growth at 1 µM was 83%.

**Q.** What about the growth at 100 µM (MDA-MB-468) of the same compound?
**A.** The growth at 100 µM was -92%.
